Results from patent US6750227B2, “Method of treatment of neuropsychiatric symptoms in patients with Alzheimer's Disease” (SmithKline Beecham Corporation, priority 1998, dated 2004).
Like-named read-outs stand apart in the source and are kept apart here.

Key:
Male Sprague Dawley rats [1] = details: rat, 30 min pretreatment
Male Sprague Dawley rats [2] = test: Catalepsy in the rat; details: 90 min after dosing, doses up to 0.3 mg/kg po
[3] = system: patients with Alzheimer's Disease; details: for Agitation score / Anxiety score / Apathy score / Delusions score / Depression score / Disinhibition score / Elation score / Hallucinations score / Irritability score / Wandering score / Total NPI score: All Patients, negative = improvement; for NPI total score, country adjusted difference vs placebo: all patients
Method: A retrospective meta-analysis on the combined data was then conducted and effects on individual symptoms assessed.
Country adjusted differences were calculated as the difference between the adjusted least square means; allowing estimates from each country to be combined in a manner whereby the most precise estimate is given more weight.
Following this analysis, a further retrospective analysis was conducted on the subgroup of patients who presented with severe behavioural disturbance at the start of the study (defined as a baseline NPI score>20). Country adjusted differences were calculated as the difference between the adjusted least square means; allowing estimates from each country to be combined in a manner whereby the most precise estimate is given more weight.

Male Sprague Dawley rats [4] = details: rat, in vivo, 2.8 mg/kg, 90 min
[5] = Patients with baseline NPI >20, 25 μg bid
[6] = Patients with baseline NPI >20, 50 μg uid

For `CO/N=C(\C#N)[C@H]1CN2CCC1CC2` [Compound (I), [R-(Z)]-α-(methoxyimino)-α-(1-azabicyclo[2.2.2]oct-3-yl)acetonitrile], the “dose at which reversal of amphetamine-induced hyperactivity reached significance (P<0.01)” value (Male Sprague Dawley rats [1]; 0.01-0.3 mg/kg po) was 0.3 mg/kg, the “ED50 for reversal of amphetamine-induced hyperactivity” value (Male Sprague Dawley rats [1]; po, 95% CI=0.14-0.75) was 0.25 mg/kg and the catalepsy (Male Sprague Dawley rats [2]) was “did not produce catalepsy”. For the same compound, the Agitation score ([3]; 25 μg bid) was −0.5, the Anxiety score ([3]; 25 μg bid) was −0.9 and the Apathy score ([3]; 25 μg bid) was −1.1. For the same compound, the Delusions score ([3]; 25 μg bid) was −0.7, the Depression score ([3]; 25 μg bid) was −0.3 and the Disinhibition score ([3]; 25 μg bid) was −0.7. It also gave an Elation score ([3]; 25 μg bid) of −1.1, a Hallucinations score ([3]; 25 μg bid) of −1.5 and an Irritability score ([3]; 25 μg bid) of −0.4. The Wandering score ([3]; 25 μg bid) was −1.2, the “Total NPI score” value ([3]; 25 μg bid, p 0.064 vs placebo) was “+0.7” and the Agitation score ([3]; 50 μg uid) was −0.6. For the same compound, the Anxiety score ([3]; 50 μg uid) was −1.5, the Apathy score ([3]; 50 μg uid) was −1.5 and the Delusions score ([3]; 50 μg uid) was −0.6. For the same compound, the Depression score ([3]; 50 μg uid) was −0.6, the Disinhibition score ([3]; 50 μg uid) was −0.7 and the Elation score ([3]; 50 μg uid) was −1.9. The Hallucinations score ([3]; 50 μg uid) was −0.7, the Irritability score ([3]; 50 μg uid) was −0.9 and the Wandering score ([3]; 50 μg uid) was −1.0. The “Total NPI score” value ([3]; 50 μg uid, p 0.026 vs placebo) was “+0.3”, the “Agitation endpoint score: change from baseline” value [3, 5] was 0 and the “Anxiety endpoint score: change from baseline” value [3, 5] was −1.9. The “Apathy endpoint score: change from baseline” value [3, 5] was −1.4, the “Delusions endpoint score: change from baseline” value [3, 5] was −0.8 and the “Depression endpoint score: change from baseline” value [3, 5] was 0. The “Disinhibition endpoint score: change from baseline” value [3, 5] was −0.8, the “Elation endpoint score: change from baseline” value [3, 5] was −1.7 and the “Hallucinations endpoint score: change from baseline” value [3, 5] was −2.1. For the same compound, the “Irritability endpoint score: change from baseline” value [3, 5] was −0.7, the “Wandering endpoint score: change from baseline” value [3, 5] was −1.7 and the “Total NPI endpoint score: change from baseline” value ([3]; Patients with baseline NPI >20, 25 μg bid, p 0.043 vs placebo) was −4.0. For the same compound, the “Agitation endpoint score: change from baseline” value [3, 6] was −0.6, the “Anxiety endpoint score: change from baseline” value [3, 6] was −1.8 and the “Apathy endpoint score: change from baseline” value [3, 6] was −1.6. The “Delusions endpoint score: change from baseline” value [3, 6] was −1.4, the “Depression endpoint score: change from baseline” value [3, 6] was −1.1 and the “Disinhibition endpoint score: change from baseline” value [3, 6] was −1.1. The “Elation endpoint score: change from baseline” value [3, 6] was −2.5, the “Hallucinations endpoint score: change from baseline” value [3, 6] was −1.4 and the “Irritability endpoint score: change from baseline” value [3, 6] was −1.2. For the same compound, the “Wandering endpoint score: change from baseline” value [3, 6] was −1.3, the “Total NPI endpoint score: change from baseline” value ([3]; Patients with baseline NPI >20, 50 μg uid, p 0.019 vs placebo) was −6.1 and the “NPI total score, country adjusted difference vs placebo” value ([3]; 50 μg uid, p=0.026, 95% CI −4.1, −0.3) was −2.1. The “NPI total score, country adjusted difference vs placebo” value ([3]; 25 kg bid (so in the source), p=0.064, 95% CI −3.8, 0.1) was −1.8, the “total NPI score, country adjusted difference vs placebo” value ([3]; patients with baseline NPI>20, 25 μg bid, p=0.043, 95% CI −14.1, −0.2) was −7.18 and the “total NPI score, country adjusted difference vs placebo” value ([3]; patients with baseline NPI>20, 50 μg uid, p=0.019, 95% CI −14.4, −1.3) was −7.86.
With `O=C(CCCN1CCC(O)(c2ccc(Cl)cc2)CC1)c1ccc(F)cc1` [haloperidol, Haloperidol] the “rats in which catalepsy was produced” value (Male Sprague Dawley rats [4]) was 6 of 6.
